Data reported in patent publication US10238688B2, “Combination therapies for bladder cancer” (GENEDIA BIOTECH CO. LTD., priority 2015, dated 2019).

Legend:
[1] = tested on: Cell Cycle/pRb-E2F pathway; experiment: Cignal Finder dual-luciferase pathway reporter, Cell Cycle/pRb-E2F; type: cell-based, human; design: key to Relative activity, Cell Cycle/pRb-E2F reporter: firefly/renilla ratio, background (negative control) subtracted; conditions: for Relative activity, Cell Cycle/pRb-E2F reporter: luc/Renluc relative to negative control reporter, single drug at 4 folds vs EH/Ci/Mi combination
Experimental: (§1) The pathway analysis was performed with Qiagen's Cignal Finder Pathway Reporter Array systems according to the manufacturer's instructions. The pathway-focused dual-luciferase reporter construct was a mixture of an inducible transcription factor responsive firefly luciferase reporter and constitutively expressing renilla construct. Transcriptional response element (TRE) sequence response elements to each specific transcriptional factor triggered by the different signaling pathways are positioned before the TATA box of firefly luciferase reporter gene. The extent of activity of the reporter reflects the level of activity of the particular signaling pathway. CMV controlled renilla expression vector is co-transfected into the cell as an internal control. Non-inducible reporter construct that lacks the transcriptional factor binding sequence and could not be induced by any transcription factors is used as a negative control. Cells transfected with CMV directed firefly luciferase reporter gene serve as a positive control. Briefly, cells seeded in 6-well plates were transfected with Cignal finder pathway arrays according to the manufacturer's instructions (Qiagen). Then cells were seeded onto 96-well plates. Ci (6000 ng/mL), Mi (800 ng/mL), or EH (1000 ng/mL) and Ci/Mi/EH combination (Ci, 1500 ng/mL, Mi, 800 ng/mL and EH, 1000 ng/m L) were then added to the cells 24 h post-transfection. After 6 h of incubation with the different drugs at 37° C., cells were lysed and a dual luciferase assay (for firefly and renilla luciferase) was performed using a PromegaGloMax 20/20 illuminometer. The firefly luciferase activities were normalized over the renilla luciferase activities after background activity determined by luciferase activities of negative controls was subtracted. A triple test of cell survival under these drug doses was also performed by MTT assay following 18 h incubation at 37° C. […]

[2] = tested on: ER Stress pathway; experiment: Cignal Finder dual-luciferase pathway reporter, ER Stress; type: cell-based, human; conditions: for Relative activity, ER Stress reporter: luc/Renluc relative to negative control reporter, single drug at 4 folds vs EH/Ci/Mi combination
Experimental: as §1

[3] = tested on: J-82; experiment: MTT cell survival / IC50, J-82 cells; type: cell-based, human; conditions: J82; Table S3; ng/ml: Pi 40, Pa 160, EH 250, Ci 1500, Mi 200; 1=Ci/Mi, 2=EH/Ci/Mi, 3=Pa/Ci/Mi, 4=Pi/Ci/Mi
Experimental: (§2) The clinical grade of the chemotherapeutics (NCI Dictionary of Cancer Terms) was provided by the First Affiliated Hospital of Harbin Medical University: Pirarubicin (Pi, Wanle, Shenzhen), Paclitaxel (Pa, Taiji, Sichuan), Adriamycin (Ad, Pfizer, Jiangsu), Epirubicin Hydrochloride (EH, Haizheng, Zhejiang), Hydroxycamptothecin (Hy, Lishizhen, Hubei), Cisplatin (Ci, Haosen, Jiangsu), Gemcitabine (Ge, Haosen, Jiangsu) and Mitomycin (Mi, Haizheng, Zhejiang). The drug induced cell death was determined by a thiazolyl […] (MTT, 490 nm reading) based cell proliferation assay in the cultured cells following treatment by various concentrations of drugs for 72 hours. The relative chemoresistance to each drug of all cell lines was calculated with the lowest IC50 as a reference. The overall chemoresistance of each cell line was described as “chemoresistance index”, the numerator of the total relative IC50 to all the drugs over the number of drugs to rank the overall resistance state of each cell line to the six chemotherapeutics collectively.
(§3) The relative IC50 (fold) of each drug of all nine cell lines was normalized to the lowest IC50 in the most sensitive cell line (FIG. 2G), to describe the single drug resistance of cell lines. The overall chemoresistance of each cell line, a “chemoresistance index” (the numerator of the total relative IC50 over the number of drugs) (FIG. 2G) were calculated to rank the overall resistance state of each cell line to this six chemotherapeutics.
(§4) Twenty six-drug combinations at the indicated doses were initially generated through a random number generator (using MATLAB MathWorks©, Natick, Mass., U.S.) (The upper half of Table 1). The cell survival (% over the not drug control) of treated cells was determined and then used for a calculation of the average cumulative cell survival (%, ACS: the sum of cell survival (%) per combination divided by the number of cell lines tested). ACS<30% was used to separate the effective from the not-effective combinations.

[4] = tested on: nine cancer-associated signaling pathways; experiment: Pearson correlation of collective drug-triggered pathway activities (single drug versus EH/Ci/Mi regimen)
Source text: To calculate the correlation coefficients between the two cell lines, the R language statistics function “cor{stats}” was used to generate the correlation matrix between multiple cell lines.
This example then determined the correlation coefficient between the overall activity of these nine pathways and the chemoresistance state of these five cell lines. […] The overall state of activity of these pathways in each cell line are summarized (FIG. 4E) and the correlation coefficient of each pair of cell lines is calculated (FIG. 4F).

[5] = tested on: Biu87; experiment: MTT cell survival / IC50, Biu87 cells; type: cell-based, human; conditions: for Cell survival (%) / Single drug 4X Cell Survival (%): Biu87; for Cell survival (%): Table S3, ng/ml: Pi 40, Pa 160, EH 250, Ci 1500, Mi 200, 1=Ci/Mi, 2=EH/Ci/Mi, 3=Pa/Ci/Mi, 4=Pi/Ci/Mi; for Single drug 4X Cell Survival (%): ng/ml: EH 1000, Ci 6000, Mi 800, Pi 160, Pa 640, Ge 20, EH/Ci/Mi regimen; for Cell survival 72 hours / ACS (%): Biu87 cells; for Cell survival 72 hours: Table 4 (A); for ACS (%): Table 4 (B)
Experimental: as §2, §3, §4

SMILES | relative drug trigged pathway activity over the no-drug level, Cell Cycle/pRb-E2F ([1]; 5637 cells) | Relative activity, Cell Cycle/pRb-E2F reporter ([1]; 5637 cells) | relative drug trigged pathway activity over the no-drug level, Cell Cycle/pRb-E2F ([1]; Biu87 cells) | Relative activity, Cell Cycle/pRb-E2F reporter ([1]; Biu87 cells) | relative drug trigged pathway activity over the no-drug level, Cell Cycle/pRb-E2F ([1]; H-bc cells) | Relative activity, Cell Cycle/pRb-E2F reporter ([1]; H-bc cells) | relative drug trigged pathway activity over the no-drug level, Cell Cycle/pRb-E2F ([1]; SV-HUC-1 cells) | Relative activity, Cell Cycle/pRb-E2F reporter ([1]; SV-HUC-1 cells) | Relative activity, Cell Cycle/pRb-E2F reporter ([1]; UM-UC-3 cells) | relative drug trigged pathway activity over the no-drug level, Cell Cycle/pRb-E2F ([1]; Um-Uc-3 cells) | relative drug trigged pathway activity over the no-drug level, ER Stress ([2]; 5637 cells) | Relative activity, ER Stress reporter ([2]; 5637 cells) | relative drug trigged pathway activity over the no-drug level, ER Stress ([2]; Biu87 cells) | Relative activity, ER Stress reporter ([2]; Biu87 cells) | relative drug trigged pathway activity over the no-drug level, ER Stress ([2]; H-bc cells) | Relative activity, ER Stress reporter ([2]; H-bc cells) | relative drug trigged pathway activity over the no-drug level, ER Stress ([2]; SV-HUC-1 cells) | Relative activity, ER Stress reporter ([2]; SV-HUC-1 cells) | Relative activity, ER Stress reporter ([2]; UM-UC-3 cells) | relative drug trigged pathway activity over the no-drug level, ER Stress ([2]; Um-Uc-3 cells) | also measured
N.N.[Cl][Pt][Cl] [Ci, (SP-4-2)-diamminedichloroplatinum(II)] | 1.95 fold | 1.77 | 0.55 fold | 0.31 | 0.51 fold | 5.86 | 1.71 fold | 8.40 | 2.29 | 0.39 fold | 1.82 fold | 47.45 | 0.83 fold | 18.10 | 0.82 fold | 101.61 | 1.12 fold | 115.00 | 67.50 | 0.83 fold | digitalized pathway activity, Cell Cycle/pRb-E2F ([1]; Biu87 cells): 0 (null (0) if neither of the above holds); digitalized pathway activity, Cell Cycle/pRb-E2F ([1]; H-bc cells): 0 (null (0) if neither of the above holds); digitalized pathway activity, ER Stress ([2]; Biu87 cells): 0 (null (0) if neither of the above holds); digitalized pathway activity, ER Stress ([2]; H-bc cells): 0 (null (0) if neither of the above holds); digitalized pathway activity, ER Stress ([2]; SV-HUC-1 cells): 0 (null (0) if neither of the above holds); digitalized pathway activity, ER Stress ([2]; UM-UC-3 cells): 0 (null (0) if neither of the above holds); Cell survival (%) [3]: 15.42%; Correlation coefficients versus EH/Ci/Mi ([4]; 5637 cells): 0.9177; Correlation coefficients versus EH/Ci/Mi ([4]; Biu87 cells): 0.3273; Correlation coefficients versus EH/Ci/Mi ([4]; H-bc cells): 0.6934; Correlation coefficients versus EH/Ci/Mi ([4]; SV-HUC-1 cells): 1; Correlation coefficients versus EH/Ci/Mi ([4]; UmUc3 cells): −0.7559; Cell survival (%) [5]: 20.94%; Single drug 4X Cell Survival (%) [5]: 12.93%; Cell survival 72 hours [5]: 12.93%; ACS (%) [5]: 12.93%
COc1cccc2c1C(=O)c1c(O)c3c(c(O)c1C2=O)C[C@@](O)(C(=O)CO)C[C@@H]3[C@@H]1C[C@H](N)[C@@H](O)[C@H](C)O1 [EH, (8R,10S)-10-((2S,4S,5R,6S)-4-amino-5-hydroxy-6-methyltetrahydro-2H-pyran-2-yl)-6,8,11-trihydroxy-8-(2-hydroxyacetyl)-1-methoxy-7,8,9,10-tetrahydrotetracene-5,12-dione] | 5.15 fold | 4.67 | 3.95 fold | 2.24 | 1.47 fold | 4.44 | 2.45 fold | 12.00 | 17.25 | 2.91 fold | 3.26 fold | 84.76 | 1.66 fold | 36.36 | 1.38 fold | 28.61 | 2.93 fold | 300.00 | 120.98 | 1.48 fold | digitalized pathway activity, Cell Cycle/pRb-E2F ([1]; H-bc cells): 0 (null (0) if neither of the above holds); digitalized pathway activity, ER Stress ([2]; H-bc cells): 0 (null (0) if neither of the above holds); digitalized pathway activity, ER Stress ([2]; UM-UC-3 cells): 0 (null (0) if neither of the above holds); Cell survival (%) [3]: 45.03%; Correlation coefficients versus EH/Ci/Mi ([4]; 5637 cells): 0.9177; Correlation coefficients versus EH/Ci/Mi ([4]; Biu87 cells): 0.982; Correlation coefficients versus EH/Ci/Mi ([4]; H-bc cells): 0.9707; Correlation coefficients versus EH/Ci/Mi ([4]; SV-HUC-1 cells): 0.9449; Correlation coefficients versus EH/Ci/Mi ([4]; UmUc3 cells): 0.3712; Cell survival (%) [5]: 38.68%; Single drug 4X Cell Survival (%) [5]: 23.24%; Cell survival 72 hours [5]: 23.24%; ACS (%) [5]: 23.24%
COC12C(COC(N)=O)C3=C(C(=O)C(C)=C(N)C3=O)N1CC1NC12 (centres unmarked) [Mi, [6-Amino-8a-methoxy-5-methyl-4,7-dioxo-1,1a,2,4,7,8,8a,8b-octahydroazireno [2′,3′:3,4]pyrrolo[1,2-a]indol-8-yl]methyl carbamate] | 2.64 fold | 2.40 | 1.46 fold | 0.83 | 0.3 fold | 0.92 | 1.39 fold | 6.80 | 2.17 | 0.37 fold | 3.2 fold | 83.09 | 1.65 fold | 36.14 | 1.97 fold | 44.48 | 1.51 fold | 155.20 | 109.59 | 1.34 fold | digitalized pathway activity, Cell Cycle/pRb-E2F ([1]; Biu87 cells): 0 (null (0) if neither of the above holds); digitalized pathway activity, Cell Cycle/pRb-E2F ([1]; SV-HUC-1 cells): 0 (null (0) if neither of the above holds); Cell survival (%) [3]: 48.38%; Correlation coefficients versus EH/Ci/Mi ([4]; 5637 cells): 1; Correlation coefficients versus EH/Ci/Mi ([4]; Biu87 cells): 0.982; Correlation coefficients versus EH/Ci/Mi ([4]; H-bc cells): −0.2773; Correlation coefficients versus EH/Ci/Mi ([4]; SV-HUC-1 cells): 1; Correlation coefficients versus EH/Ci/Mi ([4]; UmUc3 cells): 0.982; Cell survival (%) [5]: 42.05%; Single drug 4X Cell Survival (%) [5]: 21.74%; Cell survival 72 hours [5]: 21.74%; ACS (%) [5]: 21.74%
